Source: patent US9006250B2, “4-amino-6-(heterocyclic)picolinates and 6-amino-2-(heterocyclic)pyrimidine-4-carboxylates and their use as herbicides” (Dow AgroSciences, LLC, priority 2013, dated 2015)

Columns and labels:
[1] = system: ABUTH: velvetleaf (Abutilon theophrasti); assay: Post-Emergent Test II herbicidal activity; assay type: in vivo; conditions: post-emergence, 336 h, 14 days, read-out: Visual Growth Reduction (%) 14 Days After Application ABUTH; for pest or weed control at 35 g/ha: 35 g ai/ha; for pest or weed control at 70 g/ha: 70 g ai/ha; for pest or weed control at 140 g/ha: 140 g ai/ha
Procedure: (§1) Post-Emergent Test II: Seeds or nutlets of the desired test plant species were planted in Sun Gro Metro-Mix® 360 planting mixture, which typically has a pH of 6.0 to 6.8 and an organic matter content of about 30 percent, in plastic pots with a surface area of 64 square centimeters. When required to ensure good germination and healthy plants, a fungicide treatment and/or other chemical or physical treatment was applied. The plants were grown for 7-21 d in a greenhouse with an approximate 15 h photoperiod which was maintained at about 23-29° C. during the day and 22-28° C. during the night. Nutrients and water were added on a regular basis and supplemental lighting was provided with overhead metal halide 1000-Watt lamps as necessary. The plants were employed for testing when they reached the first or second true leaf stage.
(§2) A weighed amount, determined by the highest rate to be tested, of each test compound was placed in a 25 mL glass vial and was dissolved in 4 mL of a 97:3 v/v mixture of acetone and DMSO to obtain concentrated stock solutions. […] The concentrated stock solutions obtained were diluted with 20 mL of an aqueous mixture containing acetone, water, isopropyl alcohol, DMSO, Atplus 411F crop oil concentrate, and Triton® X-155 surfactant in a 48.5:39:10:1.5:1.0:0.02 v/v ratio to obtain spray solutions containing the highest application rates. Additional application rates were obtained by serial dilution of 12 mL of the high rate solution into a solution containing 2 mL of 97:3 v/v mixture of acetone and DMSO and 10 mL of an aqueous mixture containing acetone, water, isopropyl alcohol, DMSO, Atplus 411F crop oil concentrate, and Triton X®-155 surfactant in a 48.5:39:10:1.5:1.0:0.02 v/v ratio to obtain ½×, ¼×, ⅛× and 1/16× rates of the high rate. Compound requirements are based upon a 12 mL application volume at a rate of 187 liters per hectare (L/ha). Formulated compounds were applied to the plant material with an overhead Mandel track sprayer equipped with 8002E nozzles calibrated to deliver 187 L/ha over an application area of 0.503 square meters at a spray height of 18 inches […] above the average plant canopy height. Control plants were sprayed in the same manner with the solvent blank.
(§3) The treated plants and control plants were placed in a greenhouse as described above and watered by subirrigation to prevent wash-off of the test compounds. After 14 d, the condition of the test plants as compared with that of the untreated plants was determined visually and scored on a scale of 0 to 100 percent where 0 corresponds to no injury and 100 corresponds to complete kill.

[2] = system: AMARE: redroot pigweed (Amaranthus retroflexus); assay: Post-Emergent Test II herbicidal activity; assay type: in vivo; conditions: post-emergence, 336 h, 14 days, read-out: Visual Growth Reduction (%) 14 Days After Application AMARE; for pest or weed control at 35 g/ha: 35 g ai/ha; for pest or weed control at 70 g/ha: 70 g ai/ha; for pest or weed control at 140 g/ha: 140 g ai/ha
Procedure: as §1, §2, §3

[3] = system: BRSNN: oilseed rape, canola (Brassica napus); assay: Post-Emergent Test II herbicidal activity; assay type: in vivo; conditions: post-emergence, 336 h, 14 days, read-out: Visual Growth Reduction (%) 14 Days After Application BRSNN; for pest or weed control at 35 g/ha: 35 g ai/ha; for pest or weed control at 70 g/ha: 70 g ai/ha; for pest or weed control at 140 g/ha: 140 g ai/ha
Procedure: as §1, §2, §3

[4] = system: CHEAL: lambsquarters (Chenopodium album); assay: Post-Emergent Test II herbicidal activity; assay type: in vivo; conditions: post-emergence, 336 h, 14 days, read-out: Visual Growth Reduction (%) 14 Days After Application CHEAL; for pest or weed control at 35 g/ha: 35 g ai/ha; for pest or weed control at 70 g/ha: 70 g ai/ha; for pest or weed control at 140 g/ha: 140 g ai/ha
Procedure: as §1, §2, §3

[5] = system: CYPES: yellow nutsedge (Cyperus esculentus); assay: Post-Emergent Test II herbicidal activity; assay type: in vivo; conditions: post-emergence, 336 h, 14 days, read-out: Visual Growth Reduction (%) 14 Days After Application CYPES; for pest or weed control at 35 g/ha: 35 g ai/ha; for pest or weed control at 70 g/ha: 70 g ai/ha; for pest or weed control at 140 g/ha: 140 g ai/ha
Procedure: as §1, §2, §3

[6] = system: ECHCG: barnyardgrass (Echinochloa crus-galli); assay: Post-Emergent Test II herbicidal activity; assay type: in vivo; conditions: post-emergence, 336 h, 14 days, read-out: Visual Growth Reduction (%) 14 Days After Application ECHCG; for pest or weed control at 35 g/ha: 35 g ai/ha; for pest or weed control at 70 g/ha: 70 g ai/ha; for pest or weed control at 140 g/ha: 140 g ai/ha
Procedure: as §1, §2, §3

[7] = system: EPHHL: wild poinsettia (Euphorbia heterophylla); assay: Post-Emergent Test II herbicidal activity; assay type: in vivo; conditions: post-emergence, 336 h, 14 days, read-out: Visual Growth Reduction (%) 14 Days After Application EPHHL; for pest or weed control at 35 g/ha: 35 g ai/ha; for pest or weed control at 70 g/ha: 70 g ai/ha; for pest or weed control at 140 g/ha: 140 g ai/ha
Procedure: as §1, §2, §3

[8] = system: HELAN: sunflower (Helianthus annuus); assay: Post-Emergent Test II herbicidal activity; assay type: in vivo; conditions: post-emergence, 336 h, 14 days, read-out: Visual Growth Reduction (%) 14 Days After Application HELAN; for pest or weed control at 35 g/ha: 35 g ai/ha; for pest or weed control at 70 g/ha: 70 g ai/ha; for pest or weed control at 140 g/ha: 140 g ai/ha
Procedure: as §1, §2, §3

[9] = system: ORYSA: rice (Oryza sativa); assay: Post-Emergent Test II herbicidal activity; assay type: in vivo; conditions: post-emergence, 336 h, 14 days, read-out: Visual Growth Reduction (%) 14 Days After Application ORYSA; for pest or weed control at 35 g/ha: 35 g ai/ha; for pest or weed control at 70 g/ha: 70 g ai/ha; for pest or weed control at 140 g/ha: 140 g ai/ha
Procedure: as §1, §2, §3

[10] = system: TRZAS: wheat, spring (Triticum aestivum); assay: Post-Emergent Test II herbicidal activity; assay type: in vivo; conditions: post-emergence, 336 h, 14 days, read-out: Visual Growth Reduction (%) 14 Days After Application TRZAS; for pest or weed control at 35 g/ha: 35 g ai/ha; for pest or weed control at 70 g/ha: 70 g ai/ha; for pest or weed control at 140 g/ha: 140 g ai/ha
Procedure: as §1, §2, §3

[11] = system: ZEAMX: maize, corn (Zea mays); assay: Post-Emergent Test II herbicidal activity; assay type: in vivo; conditions: post-emergence, 336 h, 14 days, read-out: Visual Growth Reduction (%) 14 Days After Application ZEAMX
Procedure: as §1, §2, §3

[12] = system: SETFA: giant foxtail (Setaria faberi); assay: Post-Emergent Test II herbicidal activity; assay type: in vivo; conditions: post-emergence, 336 h, 14 days, read-out: Visual Growth Reduction (%) 14 Days After Application SETFA; for pest or weed control at 35 g/ha: 35 g ai/ha; for pest or weed control at 70 g/ha: 70 g ai/ha; for pest or weed control at 140 g/ha: 140 g ai/ha
Procedure: as §1, §2, §3

| SMILES | pest or weed control at 35 g/ha [1] [%] | pest or weed control at 70 g/ha [1] [%] | pest or weed control at 140 g/ha [1] [%] | pest or weed control at 35 g/ha [2] [%] | pest or weed control at 70 g/ha [2] [%] | pest or weed control at 140 g/ha [2] [%] | pest or weed control at 35 g/ha [3] [%] | pest or weed control at 70 g/ha [3] [%] | pest or weed control at 140 g/ha [3] [%] | pest or weed control at 35 g/ha [4] [%] | pest or weed control at 70 g/ha [4] [%] | pest or weed control at 140 g/ha [4] [%] | pest or weed control at 35 g/ha [5] [%] | pest or weed control at 70 g/ha [5] [%] | pest or weed control at 140 g/ha [5] [%] | pest or weed control at 35 g/ha [6] [%] | pest or weed control at 70 g/ha [6] [%] | pest or weed control at 35 g/ha [7] [%] | pest or weed control at 70 g/ha [7] [%] | pest or weed control at 140 g/ha [7] [%] | also measured |
| --- | --- | --- | --- | --- | --- | --- | --- | --- | --- | --- | --- | --- | --- | --- | --- | --- | --- | --- | --- | --- | --- |
| COC(=O)c1nc(-c2ccc3nonc3c2)c(F)c(N)c1Cl [Compound 1, Methyl 4-amino-6-(benzo[c][1,2,5]oxadiazol-5-yl)-3-chloro-5-fluoropicolinate] | 85 to 94 | 85 to 94 | 95 to 100 | 75 to 84 | 75 to 84 | 95 to 100 | 60 to 74 | 60 to 74 | 60 to 74 | 95 to 100 | 95 to 100 | 95 to 100 | 0 to 29 | 0 to 29 | 95 to 100 | 75 to 84 | 75 to 84 | 60 to 74 | 60 to 74 | 60 to 74 | pest or weed control at 35 g/ha [8]: 85 to 94%; pest or weed control at 70 g/ha [8]: 95 to 100%; pest or weed control at 140 g/ha [8]: 95 to 100%; pest or weed control at 35 g/ha [9]: 0 to 29%; pest or weed control at 70 g/ha [9]: 0 to 29%; pest or weed control at 140 g/ha [9]: 0 to 29%; pest or weed control at 35 g/ha [10]: 45 to 59%; pest or weed control at 70 g/ha [10]: 45 to 59%; pest or weed control at 140 g/ha [10]: 60 to 74%; pest or weed control at 35 g/ha ([11]; 35 g ai/ha): 60 to 74%; pest or weed control at 70 g/ha ([11]; 70 g ai/ha): 60 to 74%; pest or weed control at 140 g/ha ([11]; 140 g ai/ha): 60 to 74%; melting point: 180 to 182 °C |
| COC(=O)c1nc(-c2ccc3nonc3c2OC)cc(N)c1Cl [Compound 9, Methyl 4-amino-3-chloro-6-(4-methoxybenzo[c][1,2,5]oxadiazol-5-yl)picolinate] | 0 to 29 | 0 to 29 | 0 to 29 | 45 to 59 | 60 to 74 | 60 to 74 | 0 to 29 | 0 to 29 | 0 to 29 | 60 to 74 | 60 to 74 | 75 to 84 | 0 to 29 | 0 to 29 | 0 to 29 | 0 to 29 | 0 to 29 | 0 to 29 | 0 to 29 | 0 to 29 | pest or weed control at 140 g/ha [6]: 0 to 29%; pest or weed control at 35 g/ha [8]: 0 to 29%; pest or weed control at 70 g/ha [8]: 0 to 29%; pest or weed control at 140 g/ha [8]: 0 to 29%; pest or weed control at 35 g/ha [9]: 0 to 29%; pest or weed control at 70 g/ha [9]: 0 to 29%; pest or weed control at 140 g/ha [9]: 0 to 29%; pest or weed control at 35 g/ha [12]: 0 to 29%; pest or weed control at 70 g/ha [12]: 0 to 29%; pest or weed control at 140 g/ha [12]: 0 to 29%; pest or weed control at 35 g/ha [10]: 0 to 29%; pest or weed control at 70 g/ha [10]: 0 to 29%; pest or weed control at 140 g/ha [10]: 0 to 29%; melting point: 142 to 144 °C |
| COC(=O)c1nc(-c2cccc3nonc23)cc(N)c1Cl [Compound 16] | 0 to 29 | 0 to 29 | 0 to 29 | 85 to 94 | 95 to 100 | 95 to 100 | 30 to 44 | 45 to 59 | 60 to 74 | 60 to 74 | 75 to 84 | 85 to 94 | 0 to 29 | 0 to 29 | 0 to 29 | 0 to 29 | 0 to 29 | 0 to 29 | 0 to 29 | 0 to 29 | pest or weed control at 140 g/ha [6]: 0 to 29%; pest or weed control at 35 g/ha [8]: 0 to 29%; pest or weed control at 70 g/ha [8]: 30 to 44%; pest or weed control at 140 g/ha [8]: 60 to 74%; pest or weed control at 35 g/ha [9]: 0 to 29%; pest or weed control at 70 g/ha [9]: 0 to 29%; pest or weed control at 140 g/ha [9]: 0 to 29%; pest or weed control at 35 g/ha [12]: 0 to 29%; pest or weed control at 70 g/ha [12]: 0 to 29%; pest or weed control at 140 g/ha [12]: 0 to 29%; pest or weed control at 35 g/ha [10]: 0 to 29%; pest or weed control at 70 g/ha [10]: 0 to 29%; pest or weed control at 140 g/ha [10]: 0 to 29%; melting point: 157 to 160 °C |
